This note sets out measurements from ChEMBL document CHEMBL3991601, “The target landscape of clinical kinase drugs” (Science, 2017).

Test [1] concerns the target T1, Aurora kinase A (Homo sapiens, UniProt O14965).
T1 sequence (O14965 whole entry): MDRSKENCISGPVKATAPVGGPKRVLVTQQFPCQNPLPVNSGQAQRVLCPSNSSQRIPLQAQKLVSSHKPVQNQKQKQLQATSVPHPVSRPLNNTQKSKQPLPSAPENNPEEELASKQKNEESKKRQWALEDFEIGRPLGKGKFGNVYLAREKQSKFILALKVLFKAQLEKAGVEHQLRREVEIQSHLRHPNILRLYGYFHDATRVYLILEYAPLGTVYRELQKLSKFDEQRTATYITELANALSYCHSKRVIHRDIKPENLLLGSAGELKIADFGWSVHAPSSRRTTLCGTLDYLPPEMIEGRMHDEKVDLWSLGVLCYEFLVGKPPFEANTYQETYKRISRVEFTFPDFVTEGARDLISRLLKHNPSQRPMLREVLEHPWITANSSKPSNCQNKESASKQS

The target of test [2] is Calcium/calmodulin-dependent protein kinase type II subunit gamma (Homo sapiens, UniProt Q13555).
Chain of Calcium/calmodulin-dependent protein kinase type II subunit gamma (Q13555 whole entry): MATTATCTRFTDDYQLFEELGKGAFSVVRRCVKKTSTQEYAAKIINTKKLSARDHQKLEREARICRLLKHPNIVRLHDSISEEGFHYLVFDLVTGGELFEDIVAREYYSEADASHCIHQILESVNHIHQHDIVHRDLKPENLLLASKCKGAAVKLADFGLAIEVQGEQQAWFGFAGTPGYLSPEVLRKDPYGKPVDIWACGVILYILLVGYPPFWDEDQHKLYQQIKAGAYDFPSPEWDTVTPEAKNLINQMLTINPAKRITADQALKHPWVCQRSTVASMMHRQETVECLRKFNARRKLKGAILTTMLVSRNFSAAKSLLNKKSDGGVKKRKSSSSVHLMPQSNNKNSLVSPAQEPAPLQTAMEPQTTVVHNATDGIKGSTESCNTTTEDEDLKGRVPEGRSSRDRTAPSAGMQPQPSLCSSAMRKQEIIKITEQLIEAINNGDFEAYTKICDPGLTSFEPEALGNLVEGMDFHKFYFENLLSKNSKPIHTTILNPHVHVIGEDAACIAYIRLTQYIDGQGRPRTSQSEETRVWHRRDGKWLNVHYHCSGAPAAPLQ
For test [3], the target named is Cyclin-dependent kinase 2 (Homo sapiens, UniProt P24941).
Test [4] deals with Casein kinase I isoform gamma-1 (Homo sapiens, UniProt Q9HCP0).
Chain of Casein kinase I isoform gamma-1 (Q9HCP0 whole entry, canonical isoform): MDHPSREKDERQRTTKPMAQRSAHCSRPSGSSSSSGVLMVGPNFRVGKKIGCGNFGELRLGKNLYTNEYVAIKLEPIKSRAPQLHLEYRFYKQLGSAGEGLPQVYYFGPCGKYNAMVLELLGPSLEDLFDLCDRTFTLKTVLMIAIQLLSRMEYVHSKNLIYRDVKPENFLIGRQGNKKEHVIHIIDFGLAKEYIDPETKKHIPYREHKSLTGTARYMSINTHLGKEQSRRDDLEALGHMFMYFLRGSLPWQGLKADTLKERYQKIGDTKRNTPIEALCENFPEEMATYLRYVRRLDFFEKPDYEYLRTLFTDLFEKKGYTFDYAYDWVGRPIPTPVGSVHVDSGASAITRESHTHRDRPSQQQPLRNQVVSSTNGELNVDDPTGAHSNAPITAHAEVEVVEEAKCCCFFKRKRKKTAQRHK
In test [5] the target is T2, Cytochrome c1, heme protein, mitochondrial (Homo sapiens, UniProt P08574).
T2 sequence (P08574 whole entry): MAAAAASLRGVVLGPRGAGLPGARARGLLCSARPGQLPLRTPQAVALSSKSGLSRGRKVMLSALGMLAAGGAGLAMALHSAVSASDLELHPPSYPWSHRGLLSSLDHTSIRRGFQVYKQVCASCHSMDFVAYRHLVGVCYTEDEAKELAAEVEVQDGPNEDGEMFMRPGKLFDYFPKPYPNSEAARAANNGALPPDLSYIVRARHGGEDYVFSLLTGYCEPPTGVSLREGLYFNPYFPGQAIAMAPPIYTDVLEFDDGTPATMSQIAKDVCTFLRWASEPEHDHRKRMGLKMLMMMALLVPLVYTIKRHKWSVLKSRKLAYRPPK

Test [6] addresses T3, ATP-dependent RNA helicase DDX42 (Homo sapiens, UniProt Q86XP3).
T3 sequence (Q86XP3 whole entry): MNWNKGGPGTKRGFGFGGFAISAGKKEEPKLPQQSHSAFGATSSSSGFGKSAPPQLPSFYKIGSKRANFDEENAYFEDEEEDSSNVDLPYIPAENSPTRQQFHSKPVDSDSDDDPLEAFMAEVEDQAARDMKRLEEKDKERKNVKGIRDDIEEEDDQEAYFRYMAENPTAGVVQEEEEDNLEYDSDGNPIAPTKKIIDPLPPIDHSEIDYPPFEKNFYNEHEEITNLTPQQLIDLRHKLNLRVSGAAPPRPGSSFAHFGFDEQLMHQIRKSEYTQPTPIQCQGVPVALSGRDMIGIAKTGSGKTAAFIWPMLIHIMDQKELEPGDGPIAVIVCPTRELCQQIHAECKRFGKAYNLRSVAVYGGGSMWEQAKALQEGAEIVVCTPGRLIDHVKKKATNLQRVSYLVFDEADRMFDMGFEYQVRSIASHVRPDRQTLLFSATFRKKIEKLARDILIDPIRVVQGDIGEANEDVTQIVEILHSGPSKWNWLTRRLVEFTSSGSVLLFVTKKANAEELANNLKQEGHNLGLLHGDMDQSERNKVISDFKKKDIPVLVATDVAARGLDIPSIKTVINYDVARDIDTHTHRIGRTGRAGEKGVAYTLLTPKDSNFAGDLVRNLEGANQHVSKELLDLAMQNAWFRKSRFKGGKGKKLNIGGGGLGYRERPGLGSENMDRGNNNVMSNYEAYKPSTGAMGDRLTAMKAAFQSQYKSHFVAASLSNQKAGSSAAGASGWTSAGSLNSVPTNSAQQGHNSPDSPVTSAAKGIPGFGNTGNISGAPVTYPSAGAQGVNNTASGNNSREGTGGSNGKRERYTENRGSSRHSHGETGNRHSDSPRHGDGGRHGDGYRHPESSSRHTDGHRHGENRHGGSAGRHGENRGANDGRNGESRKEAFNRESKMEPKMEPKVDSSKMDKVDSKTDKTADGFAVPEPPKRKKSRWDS

The target in test [7] is T4, Delta(24)-sterol reductase (Homo sapiens, UniProt Q15392).
T4 sequence (Q15392 whole entry): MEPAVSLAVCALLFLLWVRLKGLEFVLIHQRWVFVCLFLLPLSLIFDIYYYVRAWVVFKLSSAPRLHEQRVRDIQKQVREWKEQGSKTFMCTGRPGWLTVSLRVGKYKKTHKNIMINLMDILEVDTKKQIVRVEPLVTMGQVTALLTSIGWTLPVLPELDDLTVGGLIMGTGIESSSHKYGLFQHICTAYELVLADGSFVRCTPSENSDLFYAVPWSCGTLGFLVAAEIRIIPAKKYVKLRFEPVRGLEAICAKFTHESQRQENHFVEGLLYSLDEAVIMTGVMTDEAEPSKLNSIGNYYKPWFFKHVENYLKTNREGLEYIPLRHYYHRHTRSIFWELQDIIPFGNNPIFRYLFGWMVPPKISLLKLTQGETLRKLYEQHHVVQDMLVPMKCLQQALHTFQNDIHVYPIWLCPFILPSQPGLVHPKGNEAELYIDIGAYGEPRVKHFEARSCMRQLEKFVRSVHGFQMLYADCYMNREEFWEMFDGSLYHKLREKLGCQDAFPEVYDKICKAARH

Test [8] concerns the target Glycogen synthase kinase-3 alpha (Homo sapiens, UniProt P49840).
The target in test [9] is Putative heat shock protein HSP 90-beta 2 (Homo sapiens, UniProt Q58FF8).
Chain of Putative heat shock protein HSP 90-beta 2 (Q58FF8 whole entry): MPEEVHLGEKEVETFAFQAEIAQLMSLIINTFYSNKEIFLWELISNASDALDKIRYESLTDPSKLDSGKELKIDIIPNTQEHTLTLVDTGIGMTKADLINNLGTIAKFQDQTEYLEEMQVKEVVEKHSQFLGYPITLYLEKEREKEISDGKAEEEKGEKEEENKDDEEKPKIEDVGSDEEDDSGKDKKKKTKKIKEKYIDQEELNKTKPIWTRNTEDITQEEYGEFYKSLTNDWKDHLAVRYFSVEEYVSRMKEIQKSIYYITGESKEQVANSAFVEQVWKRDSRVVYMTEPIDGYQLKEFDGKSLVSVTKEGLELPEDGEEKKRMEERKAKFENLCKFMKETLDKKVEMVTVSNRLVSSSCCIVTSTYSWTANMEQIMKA
Test [10] deals with Mitogen-activated protein kinase 9 (Homo sapiens, UniProt P45984).
Chain of Mitogen-activated protein kinase 9 (P45984 whole entry, canonical isoform): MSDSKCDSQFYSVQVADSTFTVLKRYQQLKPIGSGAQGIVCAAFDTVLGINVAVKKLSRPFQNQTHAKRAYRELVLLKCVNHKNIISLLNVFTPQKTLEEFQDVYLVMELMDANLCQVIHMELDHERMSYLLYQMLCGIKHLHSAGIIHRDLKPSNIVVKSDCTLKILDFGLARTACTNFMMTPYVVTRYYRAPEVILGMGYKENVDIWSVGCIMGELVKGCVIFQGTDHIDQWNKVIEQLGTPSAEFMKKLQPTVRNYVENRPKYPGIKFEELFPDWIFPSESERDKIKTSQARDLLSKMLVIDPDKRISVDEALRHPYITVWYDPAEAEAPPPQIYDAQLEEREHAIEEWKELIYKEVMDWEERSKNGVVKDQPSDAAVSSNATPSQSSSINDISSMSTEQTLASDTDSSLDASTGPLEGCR
The target of test [11] is S-adenosylmethionine synthase isoform type-2 (Homo sapiens, UniProt P31153).
Chain of S-adenosylmethionine synthase isoform type-2 (P31153 whole entry, canonical isoform): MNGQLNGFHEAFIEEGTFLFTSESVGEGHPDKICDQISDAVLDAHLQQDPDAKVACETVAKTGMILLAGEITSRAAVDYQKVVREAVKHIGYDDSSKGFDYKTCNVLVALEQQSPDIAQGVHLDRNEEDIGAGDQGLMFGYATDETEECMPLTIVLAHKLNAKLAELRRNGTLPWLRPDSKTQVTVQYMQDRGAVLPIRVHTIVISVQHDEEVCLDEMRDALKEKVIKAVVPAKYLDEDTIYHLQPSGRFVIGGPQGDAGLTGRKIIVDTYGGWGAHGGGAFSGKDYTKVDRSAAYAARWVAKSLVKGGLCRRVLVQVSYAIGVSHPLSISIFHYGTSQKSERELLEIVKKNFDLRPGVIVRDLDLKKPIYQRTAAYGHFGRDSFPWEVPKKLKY
Test [12] addresses T5, Ribosyldihydronicotinamide dehydrogenase [quinone] (Homo sapiens, UniProt P16083).
T5 sequence (P16083 whole entry): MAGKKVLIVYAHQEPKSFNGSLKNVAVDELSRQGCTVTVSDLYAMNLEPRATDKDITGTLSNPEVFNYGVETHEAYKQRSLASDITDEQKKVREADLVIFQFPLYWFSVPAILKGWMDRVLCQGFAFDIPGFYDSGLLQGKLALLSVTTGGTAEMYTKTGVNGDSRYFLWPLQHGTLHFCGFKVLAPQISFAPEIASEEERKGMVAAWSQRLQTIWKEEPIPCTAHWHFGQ

In test [13] the target is Protein kinase C delta type (Homo sapiens, UniProt Q05655).
Chain of Protein kinase C delta type (Q05655 whole entry): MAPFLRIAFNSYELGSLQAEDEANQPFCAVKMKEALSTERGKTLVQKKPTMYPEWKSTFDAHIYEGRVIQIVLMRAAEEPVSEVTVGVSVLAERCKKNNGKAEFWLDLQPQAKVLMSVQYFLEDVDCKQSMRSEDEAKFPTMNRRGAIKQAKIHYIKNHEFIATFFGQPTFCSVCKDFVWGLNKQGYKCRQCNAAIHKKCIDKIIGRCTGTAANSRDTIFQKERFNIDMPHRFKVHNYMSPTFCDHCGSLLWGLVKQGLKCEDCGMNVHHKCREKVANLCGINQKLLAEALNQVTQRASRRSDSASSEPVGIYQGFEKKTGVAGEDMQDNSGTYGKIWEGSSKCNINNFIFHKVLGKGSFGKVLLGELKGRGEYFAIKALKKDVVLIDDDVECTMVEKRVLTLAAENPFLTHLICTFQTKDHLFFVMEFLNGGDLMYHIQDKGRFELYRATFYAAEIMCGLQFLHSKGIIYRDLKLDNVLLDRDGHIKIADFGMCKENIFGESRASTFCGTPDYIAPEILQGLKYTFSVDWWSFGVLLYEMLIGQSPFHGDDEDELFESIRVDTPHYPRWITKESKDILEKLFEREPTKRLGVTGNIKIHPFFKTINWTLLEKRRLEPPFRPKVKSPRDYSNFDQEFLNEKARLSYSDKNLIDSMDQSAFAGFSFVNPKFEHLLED

Structures are written as SMILES. Calls of active or inactive are those of the source. For most assays here, no stated cut-off is given here; in the data, actives have a measured Kd and inactives only a lower limit.

Chain of Glycogen synthase kinase-3 alpha (P49840 whole entry): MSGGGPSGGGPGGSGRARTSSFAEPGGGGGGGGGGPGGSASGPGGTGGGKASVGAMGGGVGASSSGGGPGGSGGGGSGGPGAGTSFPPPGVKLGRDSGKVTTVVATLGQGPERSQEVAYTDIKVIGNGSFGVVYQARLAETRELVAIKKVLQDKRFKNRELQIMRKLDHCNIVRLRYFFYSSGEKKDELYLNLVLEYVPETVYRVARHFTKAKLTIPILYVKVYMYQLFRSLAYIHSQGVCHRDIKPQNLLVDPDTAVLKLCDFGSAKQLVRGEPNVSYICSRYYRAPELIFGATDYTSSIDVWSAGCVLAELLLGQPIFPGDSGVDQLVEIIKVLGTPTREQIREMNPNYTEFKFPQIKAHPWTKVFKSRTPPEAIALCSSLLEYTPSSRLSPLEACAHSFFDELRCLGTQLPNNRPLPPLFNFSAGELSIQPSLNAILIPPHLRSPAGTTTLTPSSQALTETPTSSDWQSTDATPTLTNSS

Turning to `O=c1[nH]ccc2cc(OC3CCNCC3)ccc12` [SAR-407899 FREE BASE], the Kd in test [1], in test [2], in test [3], in test [4], in test [5] and in [6] was > 30 µM (inactive) in each case. The Kd in test [7], in test [8], in [9], in [10], in test [11] and in [12] was > 30 µM (inactive) each time. Besides, the Kd in test [13] was 0.021 µM (active).
As for `CN1CCN(CCOc2cc(OC3CCOCC3)c3c(Nc4c(Cl)ccc5c4OCO5)ncnc3c2)CC1` [SARACATINIB], the Kd in test [1], in test [2], in [3], in test [4], in [5] and in test [6] was > 30 µM (inactive) each time. In addition, the Kd in test [7], in [8], in test [9], in test [10], in test [11] and in test [12] was > 30 µM (inactive) throughout. Also, the Kd in test [13] was > 30 µM (inactive).
For `Cn1cc(-c2cnn3c(N)c(Br)c([C@@H]4CCCNC4)nc23)cn1` [SCH-900776], the Kd in test [1], in [2], in [3], in test [4], in test [5] and in [6] was > 30 µM (inactive) each time. The Kd in test [7] was > 30 µM (inactive); in test [8], > 30 µM (inactive); in test [9] it was > 30 µM (inactive); in [10], > 30 µM (inactive); in [11] it was > 30 µM (inactive); in test [12], 2.36 µM (active). Also, in test [13], the Kd is 1.64 µM (active).
On to `CO[C@H]1C[C@@H]2CC[C@@H](C)[C@@](O)(O2)C(=O)C(=O)N2CCCC[C@H]2C(=O)O[C@H]([C@H](C)C[C@@H]2CC[C@@H](OC(=O)C(C)(CO)CO)[C@H](OC)C2)CC(=O)[C@H](C)/C=C(\C)[C@@H](O)[C@@H](OC)C(=O)[C@H](C)C[C@H](C)/C=C/C=C/C=C/1C` [TEMSIROLIMUS], for which the Kd in test [1], in test [2], in [3], in [4], in test [5] and in test [6] was > 30 µM (inactive) in each case. Moreover, the Kd in test [7], in [8], in test [9], in [10], in [11] and in [12] was > 30 µM (inactive) each time. For the same compound, the Kd in test [13] was > 30 µM (inactive).
`COc1cc2c(Nc3ccc(Cl)c(Cl)c3F)ncnc2cc1OC[C@@H]1C[C@@H]2CN(C)C[C@@H]2C1` [TESEVATINIB]: the Kd in test [1], in test [2], in [3], in test [4], in [5] and in test [6] was > 30 µM (inactive) each time. Also, the Kd in test [7], in [8], in [9], in [10], in [11] and in test [12] was > 30 µM (inactive) throughout. For the same compound, in test [13], the Kd is > 30 µM (inactive).
Turning to `O=C(Cc1ccc(-c2ccc(OCCN3CCOCC3)cc2)cn1)NCc1ccccc1` [TIRBANIBULIN], the Kd in test [1], in test [2], in test [3], in [4], in [5] and in [6] was > 30 µM (inactive) in each case. The Kd in test [7], in test [8], in test [9], in test [10], in test [11] and in [12] was > 30 µM (inactive) throughout. Also, the Kd in test [13] is > 30 µM (inactive).
Take `O=C1NC(=O)[C@@H](c2cn3c4c(cccc24)CCC3)[C@@H]1c1c[nH]c2ccccc12` [TIVANTINIB]: the Kd in test [1], in [2], in [3], in [4], in [5] and in test [6] was > 30 µM (inactive) each time. For the same compound, the Kd in test [7], in test [8], in [9], in test [10], in test [11] and in [12] was > 30 µM (inactive) each time. Further, the Kd in [13] was > 30 µM (inactive).
`C[C@@H](NC(=O)c1ncnc(N)c1Cl)c1ncc(C(=O)Nc2cc(C(F)(F)F)c(Cl)cn2)s1` [TOVORAFENIB]: the Kd in test [1], in test [2], in test [3], in test [4], in test [5] and in test [6] was > 30 µM (inactive) in each case. In addition, the Kd in test [7], in [8], in test [9], in test [10], in [11] and in test [12] was > 30 µM (inactive) throughout. In addition, the Kd in test [13] is > 30 µM (inactive).
